Among the data in US8859541B2, “6-alkynylpyridines” (Boehringer Ingelheim International GmbH, priority 2012, dated 2014) are IC50 values, retold here.

Usually IC50 stands for the concentration that gives 50% inhibition.

Experiment [1] concerns the target T1, XIAP BIR3 (Homo sapiens, UniProt P98170).
T1 construct: covering amino acids 241 to 356; XIAP BIR3; made in house; host or cells: E. coli
In words: XIAP BIR3 binding assay (DELFIA), displacement of SMAC peptide. The following applies: GST-fusion BIR3 domain (aa 241 to 356) 10 nM, SMAC peptide 10 nM; activity of the (S)-isomers. Summed up:
(§1)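 Each BIR3 domain (10 nM) incubated with biotinylated N-terminal SMAC peptide (10 nM) and compound for 1 h at room temp in Tris/NaCl buffer with BSA, DTT and Triton X-100. Captured on streptavidin plates; bound BIR3 detected by Eu-labelled anti-GST time-resolved fluorescence, giving IC50 values.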

The target in experiment [2] is T2, cIAP1 BIR3 (Homo sapiens, UniProt Q13490).
T2 construct: covering amino acids 256 to 363; cIAP1 BIR3; made in house; host or cells: E. coli
Put plainly: cIAP1 BIR3 binding assay (DELFIA), displacement of SMAC peptide. To be noted: GST-fusion BIR3 domain (aa 256 to 363) 10 nM, SMAC peptide 10 nM; activity of the (S)-isomers. Put shortly:
as §1

T2 sequence (Q13490 256-363): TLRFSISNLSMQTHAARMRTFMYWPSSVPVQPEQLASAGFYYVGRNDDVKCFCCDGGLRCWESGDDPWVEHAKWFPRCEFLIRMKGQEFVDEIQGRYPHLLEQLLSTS
T1 sequence (P98170 241-356): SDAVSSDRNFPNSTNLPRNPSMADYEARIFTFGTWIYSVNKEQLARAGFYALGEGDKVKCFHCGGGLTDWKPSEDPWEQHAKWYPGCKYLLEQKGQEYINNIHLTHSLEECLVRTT

As for `CC(N)C(=O)Nc1cccc(C#Cc2ccoc2)n1` (centres unmarked) [Example 240, 2-amino-N-[6-[2-(furan-3-yl)ethynyl]pyridin-2-yl]propanamide], the IC50 in experiment [1] was determined as 3020 nM; in experiment [2] it was 1340 nM.
